Measurements as given in patent publication US10065990B2, “Cyclic peptide compound, and preparation method, pharmaceutical composition and use thereof” (HANGZHOU GUANYU BIO-MEDICAL CO., LTD, priority 2013, dated 2018).
pIC50: −log10 of the molar value.

Assays:
[1] = test system: SGC-7901 (human gastric cancer cells); experiment: MTT cancer cell growth inhibition; type: cell-based; settings: Homo sapiens, SGC-7901, 72 h, MTT, 72 hours incubation, SGC-7901 cells; read-out: GI50 SGC-7901
Summary of the method: (§1)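 Using a 72 h MTT format, triplicate wells of 1500 cells received compound concentrations from 10^−5 to 10^−10 M. Formazan was read at 570 nm after DMSO dissolution, and GI50 was derived from viability.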

[2] = test system: U937 (human leukemia cells); experiment: MTT cancer cell growth inhibition; type: cell-based; settings: Homo sapiens, U-937, 72 h, MTT, 72 hours incubation; read-out: GI50 U93
Summary of the method: as §1

[3] = test system: KBM-5 (human chronic myelogenous leukemia); experiment: MTT cancer cell growth inhibition; type: cell-based; settings: Homo sapiens, KBM5, 72 h, MTT, 72 hours incubation, KBM-5 cells; read-out: GI50 KBM-5
Summary of the method: as §1

[4] = test system: N-87 (human gastric cancer cells); experiment: MTT cancer cell growth inhibition; type: cell-based; settings: Homo sapiens, 72 h, MTT, 72 hours incubation, N-87 cells; read-out: GI50 N-87
Summary of the method: as §1

[5] = test system: HT1080 (human fibrosarcoma cells); experiment: MTT cancer cell growth inhibition; type: cell-based; settings: Homo sapiens, HT-1080, 72 h, MTT, 72 hours incubation; read-out: GI50 HT1
Summary of the method: as §1

[6] = test system: K562 (human leukemia cells); experiment: MTT cancer cell growth inhibition; type: cell-based; settings: Homo sapiens, K562, 72 h, MTT, 72 hours incubation, K562 cells; read-out: GI50 K562
Summary of the method: as §1

[7] = test system: Hela (human cervical cancer cells); experiment: MTT cancer cell growth inhibition; type: cell-based; settings: Homo sapiens, HeLa, 72 h, MTT, 72 hours incubation; read-out: GI50 Hela
Summary of the method: as §1

[8] = test system: MDA-MB-231 (breast cancer cells); experiment: MTT cancer cell growth inhibition; type: cell-based; settings: Homo sapiens, MDA-MB-231, 72 h, read-out: GI50 MDA-MB-231, MTT, 72 hours incubation, MDA-MB-231 cells
Summary of the method: as §1

[9] = test system: H1975 (non-small cell lung adenocarcinoma); experiment: MTT cancer cell growth inhibition; type: cell-based; settings: Homo sapiens, NCI-H1975, 72 h, MTT, 72 hours incubation, H1975 cells; read-out: GI50 H1975
Summary of the method: as §1

[10] = test system: HCC827 (human non-small cell lung cancer cells); experiment: MTT cancer cell growth inhibition; type: cell-based; settings: Homo sapiens, HCC827, 72 h, MTT, 72 hours incubation, HCC827 cells; read-out: GI50 HCC827
Summary of the method: as §1

[11] = test system: A549 (human lung cancer cells); experiment: MTT cancer cell growth inhibition; type: cell-based; settings: Homo sapiens, A549, 72 h, MTT, 72 hours incubation; read-out: GI50 A54
Summary of the method: as §1

[12] = test system: BGC-823 (human gastric cancer cells); experiment: MTT cancer cell growth inhibition; type: cell-based; settings: Homo sapiens, BGC-823, 72 h, MTT, 72 hours incubation; read-out: GI50 BG
Summary of the method: as §1

[13] = test system: lncap (prostate cancer cells); experiment: MTT cancer cell growth inhibition; type: cell-based; settings: Homo sapiens, LNCaP, 72 h, MTT, 72 hours incubation; read-out: GI50 lnca
Summary of the method: as §1

[14] = test system: Bel-7402 (human hepatoma cells); experiment: MTT cancer cell growth inhibition; type: cell-based; settings: Homo sapiens, Bel-7402, 72 h, MTT, 72 hours incubation, Bel-7402 cells; read-out: GI50 Bel-7402
Summary of the method: as §1

[15] = test system: PANC-1 (Pac-1, human pancreatic cancer cells); experiment: MTT cancer cell growth inhibition; type: cell-based; settings: Homo sapiens, PANC-1, 72 h, MTT, 72 hours incubation; read-out: GI50 PAN
Summary of the method: as §1

[16] = test system: Huh-7 (human hepatoma cells); experiment: MTT cancer cell growth inhibition; type: cell-based; settings: Homo sapiens, Huh-7, 72 h, MTT, 72 hours incubation, Huh-7 cells; read-out: GI50 Huh-7
Summary of the method: as §1

[17] = test system: MOLT-4 (human acute lymphoblastic leukemia cells); experiment: MTT cancer cell growth inhibition; type: cell-based; settings: Homo sapiens, MOLT-4, 72 h, MTT, 72 hours incubation; read-out: GI50 Mol
Summary of the method: as §1

[18] = test system: MCF-7 (human breast cancer cells); experiment: MTT cancer cell growth inhibition; type: cell-based; settings: Homo sapiens, MCF7, 72 h, 72 hours incubation, read-out: GI50 MCF
Summary of the method: as §1

[19] = test system: DU145 (human prostate cancer cells); experiment: MTT cancer cell growth inhibition; type: cell-based; settings: Homo sapiens, DU-145, 72 h, MTT, 72 hours incubation; read-out: GI50 Du1
Summary of the method: as §1

[20] = test system: KBM5-T315I (human chronic myelogenous leukemia); experiment: MTT cancer cell growth inhibition; type: cell-based; settings: Homo sapiens, 72 h, MTT, 72 hours incubation, KBM5-T315I cells; read-out: GI50 KBM5-T315I
Summary of the method: as §1

[21] = target: HDAC1 (Homo sapiens, UniProt Q13547); experiment: HDAC biochemical activity measurement (fluorescent substrate deacetylation); settings: Table 3, column C; read-out: IC50 HDAC1, C (six-membered ring with substituents);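 further: fluorogenic acetyl-lysine substrate (20 µM) deacetylated by HDAC1, then developer releases fluorophore read at 360 nm excitation and 460 nm emission, inhibitor incubated 30 min at 37 °C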
HDAC1, sequence (Q13547 whole entry, species assumed): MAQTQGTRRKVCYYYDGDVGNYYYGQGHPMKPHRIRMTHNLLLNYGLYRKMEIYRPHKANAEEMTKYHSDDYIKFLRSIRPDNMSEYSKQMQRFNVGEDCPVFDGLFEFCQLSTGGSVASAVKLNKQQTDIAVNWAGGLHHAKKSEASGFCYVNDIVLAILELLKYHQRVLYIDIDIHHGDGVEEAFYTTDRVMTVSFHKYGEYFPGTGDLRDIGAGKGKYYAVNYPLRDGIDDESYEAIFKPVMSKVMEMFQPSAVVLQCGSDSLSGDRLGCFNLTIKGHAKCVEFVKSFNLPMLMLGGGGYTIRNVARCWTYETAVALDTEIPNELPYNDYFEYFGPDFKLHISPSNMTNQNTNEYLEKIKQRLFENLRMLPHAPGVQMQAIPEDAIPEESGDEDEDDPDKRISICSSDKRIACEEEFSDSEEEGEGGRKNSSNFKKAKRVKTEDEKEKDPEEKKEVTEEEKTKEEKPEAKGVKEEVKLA

[22] = target: T1, HDAC7 (Homo sapiens, UniProt Q8WUI4); experiment: as above; settings: HDAC7; 37° C. 30 minutes;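 further: fluorogenic deacetylation assay using acetyl-lysine substrate at 20 µM, enzyme and compound incubated 30 min at 37 °C, then developer added, fluorescence read at 360/460 nm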
T1 sequence (Q8WUI4 1-952): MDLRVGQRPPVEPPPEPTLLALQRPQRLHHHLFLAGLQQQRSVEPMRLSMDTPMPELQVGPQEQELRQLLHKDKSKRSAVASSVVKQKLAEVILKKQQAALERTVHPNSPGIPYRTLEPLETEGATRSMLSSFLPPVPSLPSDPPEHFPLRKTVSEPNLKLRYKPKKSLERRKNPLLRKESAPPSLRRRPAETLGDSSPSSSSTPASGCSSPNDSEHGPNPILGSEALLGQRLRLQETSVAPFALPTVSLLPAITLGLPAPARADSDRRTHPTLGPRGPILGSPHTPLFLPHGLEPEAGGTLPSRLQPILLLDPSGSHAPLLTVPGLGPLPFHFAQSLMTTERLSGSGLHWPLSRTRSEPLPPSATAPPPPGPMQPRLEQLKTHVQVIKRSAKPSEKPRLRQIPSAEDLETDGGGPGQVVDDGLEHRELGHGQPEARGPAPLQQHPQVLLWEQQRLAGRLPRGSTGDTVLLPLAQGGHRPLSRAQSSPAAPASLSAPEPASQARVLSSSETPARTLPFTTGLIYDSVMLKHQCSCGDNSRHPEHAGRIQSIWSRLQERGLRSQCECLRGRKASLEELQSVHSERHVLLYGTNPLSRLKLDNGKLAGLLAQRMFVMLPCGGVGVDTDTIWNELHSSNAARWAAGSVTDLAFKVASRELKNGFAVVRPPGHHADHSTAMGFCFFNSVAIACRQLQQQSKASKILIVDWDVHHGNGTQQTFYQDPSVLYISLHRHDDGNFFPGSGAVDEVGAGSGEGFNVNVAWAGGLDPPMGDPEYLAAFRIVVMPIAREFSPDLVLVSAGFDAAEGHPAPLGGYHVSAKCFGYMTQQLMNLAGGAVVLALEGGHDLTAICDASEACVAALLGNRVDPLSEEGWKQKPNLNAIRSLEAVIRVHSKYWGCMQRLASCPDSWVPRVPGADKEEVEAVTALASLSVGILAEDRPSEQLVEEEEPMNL

Compound	GI50 [1]	GI50 [2]	GI50 [3]	GI50 [4]	GI50 [5]	GI50 [6]	GI50 [7]	GI50 [8]	GI50 [9]	GI50 [10]	GI50 [11]	GI50 [12]	GI50 [13]	GI50 [14]	GI50 [15]	GI50 [16]	GI50 [17]	GI50 [18]	GI50 [19]	GI50 [20]	further results
C/C=C1\NC(=O)c2cc(F)cc(n2)CNC(=O)C[C@@H](/C=C/CCSC(C)=O)OC(=O)[C@H](C)NC1=O [Compound 64]	35 nM	30 nM	82 nM	30 nM	50 nM	26 nM	80 nM	46 nM	38 nM	51 nM	30 nM	30 nM	40 nM	51 nM	50 nM	46 nM	40 nM	20 nM	20 nM	22 nM	pIC50 [21]: 7.62
C/C=C1\NC(=O)c2ccc(F)c(n2)CNC(=O)C[C@@H](/C=C/CCSC(C)=O)OC(=O)[C@H](C)NC1=O [Example 65]	77 nM	20 nM	92 nM	52 nM	60 nM	29 nM	90 nM	43 nM	29 nM	62 nM	70 nM	50 nM	40 nM	62 nM	60 nM	43 nM	40 nM	60 nM	20 nM	63 nM	IC50 HDAC7 [22]: no activity
C/C=C1\NC(=O)c2ccc(C)c(n2)CNC(=O)C[C@@H](/C=C/CCSC(C)=O)OC(=O)[C@H](Cc2ccccc2)NC1=O [Example 68]	29 nM	30 nM	51 nM	43 nM	80 nM	26 nM	50 nM	22 nM	35 nM	83 nM	20 nM	40 nM	20 nM	83 nM	80 nM	22 nM	20 nM	30 nM	20 nM	34 nM	IC50 HDAC7 [22]: no activity
C/C=C1\NC(=O)c2nc(ccc2F)CNC(=O)C[C@@H](/C=C/CCSC(=O)CCCCCCC)OC(=O)[C@H](Cc2ccccc2)NC1=O [Example 69]	36 nM	40 nM	81 nM	52 nM	70 nM	41 nM	80 nM	35 nM	43 nM	74 nM	30 nM	50 nM	30 nM	74 nM	70 nM	35 nM	30 nM	20 nM	40 nM	29 nM	IC50 HDAC7 [22]: no activity
C/C=C1\NC(=O)c2cc(F)cc(n2)CNC(=O)C[C@@H](/C=C/CCSC(C)=O)OC(=O)[C@H](CCCCN)NC1=O [Example 73]	28 nM	30 nM	86 nM	38 nM	50 nM	35 nM	80 nM	35 nM	37 nM	52 nM	20 nM	30 nM	30 nM	52 nM	50 nM	35 nM	30 nM	20 nM	30 nM	24 nM	IC50 HDAC7 [22]: no activity
C/C=C1\NC(=O)c2nc(ccc2F)CNC(=O)C[C@@H](/C=C/CCSC(C)=O)OC(=O)[C@H](CCCCNC(=O)OCC2c3ccccc3-c3ccccc32)NC1=O [Example 75]	41 nM	20 nM	61 nM	22 nM	40 nM	28 nM	60 nM	35 nM	28 nM	42 nM	40 nM	20 nM	30 nM	42 nM	40 nM	35 nM	30 nM	20 nM	20 nM	26 nM	IC50 HDAC7 [22]: no activity
